Drawing on ChEMBL document CHEMBL3600300, “Cytotoxic triterpene saponins from Cercodemas anceps” (Bioorg Med Chem Lett, 2015), this text covers IC50 for eight molecules.

What all share (assay type): functional, cell-based
One assay deals with LNCaP. As to the kind of experiment: Cytotoxicity against human LNCAP cells after 48 hrs by SRB assay.
The test system of the next assay is MCF7. Nature of the assay: Cytotoxicity against human MCF7 cells after 48 hrs by SRB assay. As to conditions: MCF7, 48 h.
The subject of the next assay is KB. As to the kind of experiment: Cytotoxicity against human KB cells after 48 hrs by SRB assay.
For the next assay, the system named is HepG2. As to the kind of experiment: Cytotoxicity against human HepG2 cells after 48 hrs by SRB assay. The settings on record: HepG2, 48 h.
Another assay has as its system SK-MEL-2. Nature of the assay: Cytotoxicity against human SK-MEL-2 cells after 48 hrs by SRB assay. The settings on record: SK-MEL-2, 48 h.

Take `CO[C@@H]1[C@@H](O)[C@H](O[C@@H]2[C@@H](O)[C@H](O[C@H]3[C@H](O)[C@@H](O[C@@H]4OC[C@@H](O)[C@H](O)[C@H]4O)[C@H](O[C@H]4[C@H](O[C@H]5CC[C@]6(C)C7=CC[C@]89C(=O)O[C@@](C)(CCCC(C)C)[C@H]8C(=O)C[C@@]9(C)[C@@H]7CC[C@H]6C5(C)C)OC[C@@H](OS(=O)(=O)O)[C@@H]4O)O[C@@H]3C)O[C@H](COS(=O)(=O)O)[C@H]2O)O[C@H](CO)[C@H]1O`: the half-maximal inhibitory concentration (IC50) in the assay with LNCaP turned out to be 0.17 µM; in the assay on MCF7, 0.13 µM; in the assay with KB, 0.03 µM; in the assay on HepG2, 0.07 µM; in the assay with SK-MEL-2, 0.11 µM.
For `C=C(C)CCC[C@]1(C)OC(=O)[C@]23CC=C4[C@@H](CC[C@H]5C(C)(C)[C@@H](O[C@@H]6OC[C@@H](OS(=O)(=O)O)[C@H](O)[C@H]6O[C@@H]6O[C@H](C)[C@@H](O[C@@H]7O[C@H](COS(=O)(=O)O)[C@@H](O)[C@H](O[C@@H]8O[C@H](CO)[C@@H](O)[C@H](OC)[C@H]8O)[C@H]7O)[C@H](O)[C@H]6O[C@@H]6OC[C@@H](O)[C@H](O)[C@H]6O)CC[C@]45C)[C@]2(C)CC(=O)[C@@H]31`, the IC50 in the assay on LNCaP was found to be 0.23 µM; in the assay with MCF7, 0.2 µM; in the assay on KB it was 0.04 µM; with HepG2, 0.07 µM; in the assay on SK-MEL-2, 0.24 µM.
On to `CC(C)CCC[C@]1(C)OC(=O)[C@]23CC=C4[C@@H](CC[C@H]5C(C)(C)[C@@H](O[C@@H]6OC[C@@H](OS(=O)(=O)O)[C@H](O)[C@H]6O[C@H]6O[C@H](C)[C@H](O[C@@H]7O[C@H](COS(=O)(=O)O)[C@@H](O)[C@H](O)[C@H]7O)[C@H](O)[C@H]6O)CC[C@]45C)[C@]2(C)CC(=O)[C@@H]31`, for which the IC50 in the assay with LNCaP was 1.19 µM; with MCF7, 0.56 µM; with KB it was 0.25 µM; with HepG2, 0.97 µM; with SK-MEL-2, 1.47 µM.
Consider `C=C(C)CCC[C@]1(C)OC(=O)[C@]23CC=C4[C@@H](CC[C@H]5C(C)(C)[C@@H](O[C@@H]6OC[C@@H](OS(=O)(=O)O)[C@H](O)[C@H]6O[C@H]6O[C@H](C)[C@H](O[C@@H]7O[C@H](COS(=O)(=O)O)[C@@H](O)[C@H](O)[C@H]7O)[C@H](O)[C@H]6O)CC[C@]45C)[C@]2(C)CC(=O)[C@@H]31`, for which the IC50 was 1.92 µM in the assay with LNCaP; 1.03 µM with MCF7; 0.32 µM in the assay with KB; 4.69 µM with HepG2; 1.25 µM in the assay with SK-MEL-2.
The corresponding values for `CC(C)CCC[C@]1(C)OC(=O)[C@]23CC=C4[C@@H](CC[C@H]5C(C)(C)[C@@H](O[C@@H]6OC[C@@H](OS(=O)(=O)O)[C@H](O)[C@H]6O[C@H]6O[C@H](C)[C@@H](O)[C@H](O)[C@H]6O)CC[C@]45C)[C@]2(C)CC(=O)[C@@H]31` are 2.11 µM, 1.09 µM, 0.48 µM, 2.05 µM and 4.09 µM.
Turning to `C=C(C)CCC[C@]1(C)OC(=O)[C@]23CC=C4[C@@H](CC[C@H]5C(C)(C)[C@@H](O[C@@H]6OC[C@@H](OS(=O)(=O)O)[C@H](O)[C@H]6O[C@H]6O[C@H](C)[C@@H](O)[C@H](O)[C@H]6O)CC[C@]45C)[C@]2(C)CC(=O)[C@@H]31`, the IC50 in the assay on LNCaP came to 3.3 µM; in the assay with MCF7, 1.33 µM; with KB, 1.37 µM; with HepG2, 6.08 µM; in the assay with SK-MEL-2 it was 7.36 µM.
Take `CO[C@@H]1[C@@H](O)[C@H](O[C@@H]2[C@@H](O)[C@H](O[C@H]3[C@H](O)[C@@H](O)[C@H](O[C@H]4[C@H](O[C@H]5CC[C@]6(C)[C@H]7CC[C@]89C(=O)O[C@@](C)(CCC=C(C)C)[C@H]8[C@@H](OC(C)=O)C[C@@]9(C)C7=CC[C@H]6C5(C)C)OC[C@@H](OS(=O)(=O)O)[C@@H]4O)O[C@@H]3C)OC[C@H]2O)O[C@H](CO)[C@H]1O`: the IC50 amounted to 1.19 µM with LNCaP; 0.37 µM in the assay with MCF7; 0.11 µM with KB; 1.16 µM in the assay with HepG2; 0.85 µM with SK-MEL-2.
Regarding `Cc1c2ccncc2c(C)c2c1[nH]c1ccccc12` [ELLIPTECINE], the IC50 was determined as 1.99 µM in the assay on LNCaP; 1.95 µM with MCF7; 2.07 µM in the assay with KB; 1.71 µM in the assay on HepG2; 2.15 µM in the assay on SK-MEL-2.
